Laboratory results taken from ChEMBL document CHEMBL3588806, “Generation of Broad-Spectrum Antifungal Drug Candidates from the Natural Product Compound Aureobasidin A” (ACS Med Chem Lett, 2015).
Values after ≈ are worked out from the molar mass of the structure shown. Values belong to the compound of their own block, whether it stands above or below them. Active and inactive are the calls of the source. No cut-off for these calls is given here. Starred links: 1 amine or outer side, 2 acyl side, 3 side chain; linkers in the order of their positions; H or OH if unused. Non-standard residues stand in square brackets, D forms with d. Residues, ends and D or L forms follow the SMILES beside them. X7 = CN([C@@H](Cc1cccc(B2OC(C)(C)C(C)(C)O2)c1)C(=O)[*:2])[*:1]; X8 = CN([C@@H](Cc1cccc(-c2ccc(Cl)nc2)c1)C(=O)[*:2])[*:1]; X6 = CN([C@@H](Cc1cccc(-c2ccccc2Cl)c1)C(=O)[*:2])[*:1]; X11 = CN([C@@H](Cc1ccc(-c2cccnc2)cc1)C(=O)[*:2])[*:1]; X9 = CN([C@@H](Cc1cccc(-c2ccncc2)c1)C(=O)[*:2])[*:1]; X1 = CC[C@@H](C)[C@@H](O[*:1])C(=O)[*:2]; Hmp(2R,3S) = CC[C@H](C)[C@@H](O)C(=O)O; NMeVal(β-OH) = CN[C@H](C(=O)O)C(C)(C)O; NMeF = CN[C@@H](Cc1ccccc1)C(=O)O; aIle = CC[C@@H](C)[C@H](N)C(=O)O; NMeV = CN[C@H](C(=O)O)C(C)C

Columns and labels:
[1] = system: Aspergillus fumigatus; test: Antifungal activity against Aspergillus fumigatus by broth dilution method; format: functional
[2] = system: Candida albicans; test: Antifungal activity against Candida albicans by broth dilution method; format: functional
[3] = Ratio of MIC for Aspergillus fumigatus to MIC for Candida albicans; format: functional
[4] = system: Candida parapsilosis; test: Antifungal activity against Candida parapsilosis ATCC 22019 by broth dilution method; format: functional; conditions: Lodderomyces parapsilosis
[5] = system: Aspergillus flavus; test: Antifungal activity against Aspergillus flavus ATCC 204304 by broth dilution method; format: functional
[6] = system: Meyerozyma guilliermondii; test: Antifungal activity against Candida guilliermondii ATCC 34134 by broth dilution method; format: functional
[7] = system: Candida albicans; test: Antifungal activity against Candida albicans ATCC 24433 by broth dilution method; format: functional
[8] = system: Nakaseomyces glabratus; test: Antifungal activity against Candida glabrata ATCC 90030 by broth dilution method; format: functional
[9] = system: Candida tropicalis; test: Antifungal activity against Candida tropicalis ATCC 90874 by broth dilution method; format: functional
[10] = system: Aspergillus nidulans; test: Antifungal activity against Emericella nidulans ATCC 96921 by broth dilution method; format: functional
[11] = system: Clavispora lusitaniae; test: Antifungal activity against Candida lusitaniae ATCC 66035 by broth dilution method; format: functional
[12] = system: Candida albicans; test: Antifungal activity against Candida albicans ATCC 204276 by broth dilution method; format: functional
[13] = system: Aspergillus flavus; test: Antifungal activity against Aspergillus flavus ATCC 22546 by broth dilution method; format: functional
[14] = system: Candida parapsilosis; test: Antifungal activity against Candida parapsilosis ATCC 90018 by broth dilution method; format: functional; conditions: Lodderomyces parapsilosis
[15] = system: Pichia kudriavzevii; test: Antifungal activity against Candida krusei ATCC 14243 by broth dilution method; format: functional
[16] = system: Cryptococcus neoformans; test: Antifungal activity against Cryptococcus neoformans ATCC […] by broth dilution method; format: functional
[17] = system: Trichophyton mentagrophytes; test: Antifungal activity against Trichophyton mentagrophytes ATCC MYA-4439 by broth dilution method; format: functional
[18] = system: Aspergillus ochraceus; test: Antifungal activity against Aspergillus ochraceus ATCC 96919 by broth dilution method; format: functional
[19] = system: Candida tropicalis; test: Antifungal activity against Candida tropicalis ATCC 750 by broth dilution method; format: functional
[20] = system: Aspergillus candidus; test: Antifungal activity against Aspergillus candidus ATCC 13686 by broth dilution method; format: functional
[21] = system: Trichophyton rubrum; test: Antifungal activity against Trichophyton rubrum ATCC MYA-4438 by broth dilution method; format: functional
[22] = system: Candida albicans; test: Antifungal activity against Candida albicans ATCC MYA-2732 by broth dilution method; format: functional
[23] = system: Rhizopus arrhizus; test: Antifungal activity against Rhizopus oryzae ATCC 11886 by broth dilution method; format: functional
[24] = system: Saccharomyces cerevisiae; test: Antifungal activity against Saccharomyces cerevisiae ATCC 7754 by broth dilution method; format: functional
[25] = system: Aspergillus fumigatus; test: Antifungal activity against Aspergillus fumigatus ATCC MYA-32626 by broth dilution method; format: functional
[26] = system: Pichia kudriavzevii; test: Antifungal activity against Issatchenkia orientalis ATCC 6258 by broth dilution method; format: functional
[27] = system: Fusarium oxysporum; test: Antifungal activity against Fusarium oxysporum ATCC 48112 by broth dilution method; format: functional
[28] = system: Candida albicans; test: Antifungal activity against Candida albicans ATCC 90028 by broth dilution method; format: functional
[29] = system: Aspergillus fumigatus; test: Antifungal activity against Aspergillus fumigatus ATCC 20435 by broth dilution method; format: functional
[30] = system: Aspergillus niger; test: Antifungal activity against Aspergillus niger ATCC 16888 by broth dilution method; format: functional
[31] = system: Candida albicans; test: Antifungal activity against Candida albicans ATCC 90029 by broth dilution method; format: functional
[32] = system: Aspergillus niger; test: Antifungal activity against Aspergillus niger ATCC 64028 by broth dilution method; format: functional
[33] = system: Aspergillus clavatus; test: Antifungal activity against Aspergillus clavatus ATCC 10058 by broth dilution method; format: functional
[34] = system: Trichophyton mentagrophytes; test: Antifungal activity against Trichophyton mentagrophytes ATCC 28185 by broth dilution method; format: functional
[35] = system: Sporothrix schenckii; test: Antifungal activity against Sporothrix schenckii ATCC 14284 by broth dilution method; format: functional
[36] = system: Candida albicans; test: Antifungal activity against Candida albicans ATCC 10231 by broth dilution method; format: functional
[37] = system: Aspergillus flavus; test: Antifungal activity against Aspergillus flavus ATCC 64025 by broth dilution method; format: functional
[38] = Time dependent inhibition of Candida albicans ATCC 38247 membrane inositol phosphorylceramide synthase using ceramide as substrate

SMILES: CC[C@H](C)[C@@H]1NC(=O)[C@@H]2CCCN2C(=O)[C@H](Cc2cccc(-c3ccccc3Cl)c2)N(C)C(=O)[C@H](Cc2ccccc2)NC(=O)[C@H](C(C)C)N(C)C(=O)[C@@H]([C@@H](C)CC)OC(=O)[C@H](C(C)(C)O)N(C)C(=O)[C@H](CC(C)C)NC(=O)[C@H](C(C)C)N(C)C1=O (cyclo(F[X6]PI[NMeV]L[NMeVal(β-OH)][Hmp(2R,3S)][NMeV]))
MIC [1]: < 1.25 µg/mL
MIC [2]: < 0.5 µg/mL
Ratio [3]: > 10

MIC [1]: 10 µg/mL (≈ 8.15 µM)
MIC [2]: < 0.5 µg/mL
SMILES: CC[C@H](C)[C@@H]1NC(=O)[C@@H]2CCCN2C(=O)[C@H](Cc2cccc(B3OC(C)(C)C(C)(C)O3)c2)N(C)C(=O)[C@H](Cc2ccccc2)NC(=O)[C@H](C(C)C)N(C)C(=O)[C@@H]([C@@H](C)CC)OC(=O)[C@H](C(C)(C)O)N(C)C(=O)[C@H](CC(C)C)NC(=O)[C@H](C(C)C)N(C)C1=O (cyclo(F[X7]PI[NMeV]L[NMeVal(β-OH)][Hmp(2R,3S)][NMeV]))

MIC [1]: < 1.25 µg/mL
MIC [2]: < 0.025 µg/mL
SMILES: CC[C@H](C)[C@@H]1NC(=O)[C@@H]2CCCN2C(=O)[C@H](Cc2cccc(-c3ccc(Cl)nc3)c2)N(C)C(=O)[C@H](Cc2ccccc2)NC(=O)[C@H](C(C)C)N(C)C(=O)[C@@H]([C@@H](C)CC)OC(=O)[C@H](C(C)(C)O)N(C)C(=O)[C@H](CC(C)C)NC(=O)[C@H](C(C)C)N(C)C1=O (cyclo(F[X8]PI[NMeV]L[NMeVal(β-OH)][Hmp(2R,3S)][NMeV]))
Ratio [3]: > 10

SMILES: CC[C@H](C)[C@@H]1NC(=O)[C@@H]2CCCN2C(=O)[C@H](Cc2cccc(-c3ccncc3)c2)N(C)C(=O)[C@H](Cc2ccccc2)NC(=O)[C@H](C(C)C)N(C)C(=O)[C@@H]([C@@H](C)CC)OC(=O)[C@H](C(C)(C)O)N(C)C(=O)[C@H](CC(C)C)NC(=O)[C@H](C(C)C)N(C)C1=O (cyclo(F[X9]PI[NMeV]L[NMeVal(β-OH)][Hmp(2R,3S)][NMeV]))
MIC [1]: < 1.25 µg/mL
MIC [2]: < 0.025 µg/mL
Ratio [3]: > 10

MIC [1]: < 2.5 µg/mL
SMILES: CC[C@H](C)[C@@H]1NC(=O)[C@@H]2CCCN2C(=O)[C@H](Cc2ccc(-c3cccnc3)cc2)N(C)C(=O)[C@H](Cc2ccccc2)NC(=O)[C@H](C(C)C)N(C)C(=O)[C@@H]([C@@H](C)CC)OC(=O)[C@H](C(C)(C)O)N(C)C(=O)[C@H](CC(C)C)NC(=O)[C@H](C(C)C)N(C)C1=O (cyclo(F[X11]PI[NMeV]L[NMeVal(β-OH)][Hmp(2R,3S)][NMeV]))
Activity [2]: Active

SMILES: C[C@@H]1[C@H](O)[C@@H](C)/C=C/C=C/C=C/C=C/C=C/C=C/C=C/[C@H](O[C@@H]2O[C@H](C)[C@@H](O)[C@H](N)[C@@H]2O)C[C@@H]2O[C@](O)(C[C@@H](O)C[C@@H](O)[C@H](O)CC[C@@H](O)C[C@@H](O)CC(=O)O[C@H]1C)C[C@H](O)[C@H]2C(=O)O [AMPHOTERICIN B]
MIC [4]: 0.125 µg/mL (≈ 0.135 µM)
MIC [5]: 0.25 µg/mL (≈ 0.271 µM)
MIC [6]: 0.008 µg/mL (≈ 0.00866 µM)
MIC [7]: 0.03 µg/mL (≈ 0.0325 µM)
MIC [8]: 0.03 µg/mL (≈ 0.0325 µM)
MIC [9]: 0.06 µg/mL (≈ 0.0649 µM)
MIC [10]: 1 µg/mL (≈ 1.08 µM)
MIC [11]: 0.015 µg/mL (≈ 0.0162 µM)
MIC [12]: 0.06 µg/mL (≈ 0.0649 µM)
MIC [13]: 0.25 µg/mL (≈ 0.271 µM)
MIC [14]: 0.06 µg/mL (≈ 0.0649 µM)
MIC [15]: 0.125 µg/mL (≈ 0.135 µM)
MIC [16]: 0.015 µg/mL (≈ 0.0162 µM)
MIC [17]: 0.06 µg/mL (≈ 0.0649 µM)
MIC [18]: 0.25 µg/mL (≈ 0.271 µM)
MIC [19]: 0.06 µg/mL (≈ 0.0649 µM)
MIC [20]: 0.03 µg/mL (≈ 0.0325 µM)
MIC [21]: 0.03 µg/mL (≈ 0.0325 µM)
MIC [22]: 0.06 µg/mL (≈ 0.0649 µM)
MIC [23]: 0.03 µg/mL (≈ 0.0325 µM)
MIC [24]: 0.06 µg/mL (≈ 0.0649 µM)
MIC [25]: 0.25 µg/mL (≈ 0.271 µM)
MIC [26]: 0.125 µg/mL (≈ 0.135 µM)
MIC [27]: 1 µg/mL (≈ 1.08 µM)
MIC [28]: 0.03 µg/mL (≈ 0.0325 µM)
MIC [29]: 0.25 µg/mL (≈ 0.271 µM)
MIC [30]: 0.03 µg/mL (≈ 0.0325 µM)
MIC [31]: 0.03 µg/mL (≈ 0.0325 µM)
MIC [32]: 0.015 µg/mL (≈ 0.0162 µM)
MIC [33]: 0.004 µg/mL (≈ 0.00433 µM)
MIC [34]: 0.06 µg/mL (≈ 0.0649 µM)
MIC [35]: 0.5 µg/mL (≈ 0.541 µM)
MIC [36]: 0.03 µg/mL (≈ 0.0325 µM)
MIC [37]: 0.5 µg/mL (≈ 0.541 µM)

SMILES: CC[C@@H](C)[C@@H]1NC(=O)[C@@H]2CCCN2C(=O)[C@H](Cc2ccccc2)N(C)C(=O)[C@H](Cc2ccccc2)NC(=O)[C@H](C(C)C)N(C)C(=O)[C@@H]([C@H](C)CC)OC(=O)[C@H](C(C)(C)O)N(C)C(=O)[C@H](CC(C)C)NC(=O)[C@H](C(C)C)N(C)C1=O [AUREOBASIDIN A] (cyclo(F[NMeF]P[aIle][NMeV]L[NMeVal(β-OH)][X1][NMeV]))
MIC [1]: > 25 µg/mL
MIC [2]: < 0.05 µg/mL
Ki [38]: 0.2 nM
